Patent publication US7829560B2, “1,4-disubstituted naphthalenes as inhibitors of P38 MAP kinase” (Arqule, Inc., priority 2004, dated 2010)
“And” between values parts separate entries of the source, which are not always exact repeats. Equal values may be shown once.

Legend:
p38α = target: T1, p38α (Homo sapiens, UniProt Q16539); experiment: p38 MAP Kinase assay: inhibition of ATF2 phosphorylation, ELISA; format: biochemical; conditions: for inhibition at 10 µM: substrate ATF2, read-out: [ENZ] P38 ALPHA, PCT INH, ELISA (10 uM;ATF2) (Percent); for IC50: ATF2 phosphorylation, read-out: [ENZ] P38 ALPHA, IC50, ELISA
T1 construct: p38 MAP Kinases are recombinant human full-length proteins with an amino-terminal GST fusion; GST (N); purchased Upstate Biotechnology Inc; host or cells: E. coli
How it was run: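 In vitro phosphorylation of ATF2 at Thr69 by recombinant human GST-p38 MAP kinase, read by anti-phospho-ATF2 ELISA at 450 nm. Enzyme and compound pre-incubated 15 min at RT, then 30 min reaction at 37 °C with 40 μM ATP and 1.25 μM ATF2; buffer with or without 1% HSA (Method II or I).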

[1] = system: TNFα release from THP-1 cells; experiment: Inhibition of TNFα release from LPS-stimulated THP-1 cells, ELISA; format: cell-based; conditions: Homo sapiens, THP-1, THP-1 cells, read-out: [CELL] THP-1, IC50, TNF ALPHA, ELISA
How it was run: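 TNFα released into supernatant after 18 h of 10 μg/ml LPS stimulation was quantified by ELISA and IC50 taken as 50% reduction by non-linear regression. THP-1 cells (10^6/ml; medium with 10% FBS, serum-free or 1% HSA) saw compound for 30 min at 37 °C beforehand; final DMSO ≤0.5%.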

T1 sequence (Q16539 whole entry, the tested form may be a part): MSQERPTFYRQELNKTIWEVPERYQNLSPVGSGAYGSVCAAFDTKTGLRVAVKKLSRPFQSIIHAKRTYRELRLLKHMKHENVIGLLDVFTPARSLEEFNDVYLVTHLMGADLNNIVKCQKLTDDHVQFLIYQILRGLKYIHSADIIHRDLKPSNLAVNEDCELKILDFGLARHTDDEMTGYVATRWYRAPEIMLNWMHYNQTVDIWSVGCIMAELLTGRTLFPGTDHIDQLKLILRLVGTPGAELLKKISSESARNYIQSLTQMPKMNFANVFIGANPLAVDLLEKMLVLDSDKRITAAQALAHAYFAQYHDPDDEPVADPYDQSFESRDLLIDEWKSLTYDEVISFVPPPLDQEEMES

Structure (SMILES) | melting point [°C] | inhibition at 10 µM (p38α) [%] | IC50 (p38α) | IC50 [1] [nM]
O=C(Nc1ccc(OCCN2CCOCC2)c2ccccc12)c1cccc(N2CCOCC2)c1 [Compound B169, 3-Morpholin-4-yl-N-[4-(2-morpholin-4-yl-ethoxy)-naphthalen-1-yl]-benzamide] | 90 to 92 | 77.5 | 2070 nM | 1330
O=C(Nc1ccc(OCCN2CCOCC2)c2ccccc12)c1cccc(-c2cccnc2)c1 [Compound B58, N-[4-(2-Morpholin-4-yl-ethoxy)-naphthalen-1-yl]-3-pyridin-3-yl-benzamide] | 77 to 78 | – | 8810 nM | > 10000
O=C(Nc1ccc(OCc2ccncc2)c2ccccc12)c1cc(F)cc(OC2CCCCC2)c1 [Compound B235, 3-(Cyclohexyloxy)-5-fluoro-N-[4-(pyridin-4-ylmethoxy)-1-naphthyl]benzamide] | 176 to 178 | – | 125 nM | 557
O=C(Nc1ccc(OCCN2CCOCC2)c2ccccc12)c1ccc2snnc2c1 [Compound B50, N-[4-(2-Morpholin-4-ylethoxy)-1-naphthyl]-1,2,3-benzothiadiazole-5-carboxamide] | 188 to 190 | – | 1240 nM | 9180
CC(C)(C)OC(=O)NC1CCN(c2nccc(Oc3ccc(NC(=O)c4cc(F)cc(N5CCOCC5)c4)c4ccccc34)n2)CC1 [Compound B366, t-Butyl-{1-[4-({4-[(3-fluoro-5-morpholin-4-ylbenzoyl)amino]-1-naphthyl}oxy)pyrimidin-2-yl]piperidin-4-yl}-carbamate] | 214 to 216 | – | 28.3 nM | 386
CCC1CCC(Oc2cc(F)cc(C(=O)Nc3ccc(OCc4ccncc4)c4ccccc34)c2)CC1 (stereo not drawn) [Compound B228, 3-[(4-Ethylcyclohexyl)oxy]-5-fluoro-N-[4-(pyridin-4-ylmethoxy)-1-naphthyl]benzamide] | 93 to 95 | – | > 10000 nM | –
O=C(Nc1ccc(OCCN2CCOCC2)c2ccccc12)c1ccnc(N2CCOCC2)c1 [Compound B122, 2-Morpholin-4-yl-N-[4-(2-morpholin-4-yl-ethoxy)-naphthalen-1-yl]-isonicotinamide] | – | 73.5 | 3520 nM | 2100
CN(C)c1cccc(C(=O)Nc2ccc(OCCN3CCOCC3)c3ccccc23)c1 [Compound B33] | – | – | 29800 nM | > 10000
CCCC/C=C/c1cccc(C(=O)Nc2ccc(OCCN3CCOCC3)c3ccccc23)c1 [Compound B99] | – | 45 | > 10000 nM | 5570
O=C(Nc1ccc(OCCN2CCOCC2)c2ccccc12)c1cccc(-c2cccc(OC(F)(F)F)c2)c1 [Compound B297] | – | – | > 10000 nM | > 10000
O=C(Nc1ccc(OCCN2CCOCC2)c2ccccc12)c1cccc(-c2ccc(C(F)(F)F)cc2)c1 [Compound B271] | – | – | > 10000 nM | 4030
Cc1cc(F)ccc1-c1cccc(C(=O)Nc2ccc(Oc3ccnc(NCC(C)(C)CN(C)C)n3)c3ccccc23)c1 [Compound B314, 4′-Fluoro-2′-methyl-biphenyl-3-carboxylic acid {4-[2-(3-dimethylamino-2,2-dimethyl-propylamino)-pyrimidin-4-yloxy]-naphthalen-1-yl}-amide] | – | – | 1 nM | 41.2
CNc1nccc(Oc2ccc(NC(=O)c3cc(F)cc(N4CCOCC4)c3)c3ccccc23)n1 [Compound B251, 3-Fluoro-N-(4-{[2-(methylamino)pyrimidin-4-yl]oxy}-1-naphthyl)-5-morpholin-4-ylbenzamide] | – | – | 134 nM | 764
Cc1cc(C(=O)Nc2ccc(OCCN3CCOCC3)c3ccccc23)cc(N2CCCC2C)n1 (stereo not drawn) [Compound B155, 2-Methyl-6-(2-methyl-pyrrolidin-yl)-N-[4-(2-morpholin-4-yl-ethoxy)-naphthalen-1-yl]-isonicotinamide] | – | 89 | 745 nM | 2450
CC(=O)N1CCN(c2nccc(Oc3ccc(NC(=O)c4cc(F)cc(N5CCOCC5)c4)c4ccccc34)n2)CC1 [Compound B354] | – | – | 9.4 nM | 217
COc1ccc(C(C)C)cc1-c1cccc(C(=O)Nc2ccc(OCCN3CCOCC3)c3ccccc23)c1 [Compound B294] | – | – | > 10000 nM | > 10000
Cc1cc(F)ccc1-c1cccc(C(=O)Nc2ccc(OCCN3CCOCC3)c3ccccc23)c1 [Compound B245] | – | – | 631 nM | 1140
CCOC(=O)N1CCN(c2nccc(Oc3ccc(NC(=O)c4cc(F)cc(N5CCOCC5)c4)c4ccccc34)n2)CC1 [Compound B329, Ethyl-4-[4-({4-[(3-fluoro-5-morpholin-4-ylbenzoyl)amino]-1-naphthyl}oxy)pyrimidin-2-yl]piperazine-1-carboxylate] | – | – | 10.5 nM | > 1000
CC(=O)Nc1cccc(C(=O)Nc2ccc(OCCN3CCOCC3)c3ccccc23)c1 [Compound B32] | – | – | 7490 nM | > 10000
COc1ccc(F)cc1-c1cccc(C(=O)Nc2ccc(OCCN3CCOCC3)c3ccccc23)c1 [Compound B289] | – | – | 1470 nM | 3090
O=C(Nc1ccc(OCCN2CCOCC2)c2ccccc12)c1cc(N2CCOCC2)nc(Cl)n1 [Compound B42, 2-Chloro-6-morpholin-4-yl-pyrimidine-4-carboxylic acid [4-(2-morpholin-4-yl-ethoxy)-naphthalen-1-yl]-amide] | – | – | 6340 nM | > 1000

The remaining lines, values ahead:

melting point [°C] | inhibition at 10 µM (p38α) [%] | IC50 (p38α) | IC50 [1] [nM] | Structure (SMILES)
152 to 153 | – | 4040 nM | – | O=C(Nc1ccc(OCc2ccoc2)c2ccccc12)c1cc(F)cc(N2CCCCC2)c1 [Compound B180, 3-Fluoro-N-[4-(3-furylmethoxy)-1-naphthyl]-5-piperidin-1-ylbenzamide]
92 to 94 | – | 2.1 nM | 89 | O=C(Nc1ccc(Oc2ccnc(NCCN3CCCC3)n2)c2ccccc12)c1cc(F)cc(N2CCCCC2)c1 [Compound B389, 3-Fluoro-5-piperidin-1-yl-N-[4-({2-[(2-pyrrolidin-1-ylethyl)amino]pyrimidin-4-yl}oxy)-1-naphthyl]benzamide]
70 to 72 | – | 1140 nM | > 10000 | O=C(Nc1ccc(OCCCN2CCNCC2)c2ccccc12)c1cc(F)cc(N2CCCCC2)c1 [Compound B183, 3-Fluoro-N-[4-(3-piperazin-1-yl-propoxy)-naphthalen-1-yl]-5-piperidin-1-yl-benzamide]
161 to 162 | – | 2350 nM | – | O=C(Nc1ccc(OCCN2CCCC2=O)c2ccccc12)c1cc(F)cc(N2CCCCC2)c1 [Compound B181, 3-Fluoro-N-{4-[2-(2-oxopyrrolidin-1-yl)ethoxy]-1-naphthyl}-5-piperidin-1-ylbenzamide]
75 to 77 | – | 5390 nM | – | O=C(Nc1ccc(OCCN2CCOCC2)c2ccccc12)c1cc(F)cc(OC2CCOCC2)c1 [Compound B226, 3-Fluoro-N-[4-(2-morpholin-4-ylethoxy)-1-naphthyl]-5-(tetrahydro-2H-pyran-4-yloxy)benzamide]
111 to 113 | – | – | 515 | O=C(Nc1ccc(Oc2ccnc(N3CCCC3)n2)c2ccccc12)c1cc(F)cc(N2CCCCC2)c1 [Compound B377, 3-Fluoro-piperidin-1-yl-N-{4-[(2-pyrrolidin-1-ylpyrimidin-4-yl)oxy]-1-naphthyl}benzamide]
70 to 72 | – | 4810 nM | – | O=C(Nc1ccc(OCCCN2CCC3(CC2)OCCO3)c2ccccc12)c1cc(F)cc(N2CCCCC2)c1 [Compound B166, N-{4-[3-(1,4-Dioxa-8-aza-spiro[4.5]dec-8-yl)-propoxy]-naphthalen-1-yl}-3-fluoro-5-piperidin-1-yl-benzamide]
172 to 173 | – | 6550 nM | – | O=C(Nc1ccc(OCCN2CCCC2=O)c2ccccc12)c1cc(F)cc(N2CCOCC2)c1 [Compound B224, 3-Fluoro-5-morpholin-4-yl-N-{4-[2-(2-oxopyrrolidin-1-yl)ethoxy]-1-naphthyl}benzamide]
– | – | > 10000 nM | > 10000 | O=C(Nc1ccc(OCCN2CCOCC2)c2ccccc12)c1cc(F)cc(N2CCc3ccccc3C2)c1 [Compound B200]
– | – | 16.8 nM | 715 | O=C(Nc1ccc(Oc2ccnc(N3CCC(O)C3)n2)c2ccccc12)c1cc(F)cc(N2CCCCC2)c1 (stereo not drawn) [Compound B393]
– | – | 8250 nM | 9420 | O=C(Nc1ccc(NCCN2CCOCC2)c2ccccc12)c1cc(F)cc(N2CCOCC2)c1 [Compound B241]
– | – | 323 nM | 4730 | CC1CCCCN1c1cc(F)cc(C(=O)Nc2ccc(OCCN3CCOCC3)c3ccccc23)c1 (stereo not drawn) [Compound B201, 3-Fluoro-5-(2-methylpiperidin-1-yl)-N-[4-(2-morpholin-4-ylethoxy)-1-naphthyl]benzamide]
157 to 159 | – | 52.7 nM and 61 nM | – | O=C(Nc1ccc(OCc2ccncc2)c2ccccc12)c1cc(F)cc(N2CCOCC2)c1 [Compound B191, 3-Fluoro-5-morpholin-4-yl-N-[4-(pyridin-4-ylmethoxy)-1-naphthyl]benzamide]
– | – | 20.9 nM | 674 | CN(CCO)c1nccc(Oc2ccc(NC(=O)c3cc(F)cc(N4CCCCC4)c3)c3ccccc23)n1 [Compound B373]
